Where two headings read alike, the source gives them in different places.
What was measured:
[1] = biological target: USP30^ch3 F453Y (Homo sapiens, UniProt Q70CQ3, F453Y, form not given); experiment: Ub–RhoG cleavage enzyme inhibition assay, chimera 3 F453Y; type: biochemical; design: USP30ch3 F453Y activity / USP30ch3 F453Y activity (ED Fig. 7e series): scale not given here; settings: for reduction of inhibition potency by F453Y substitution (specificity window vs WT): USP30^ch3 F453Y vs WT; for USP30ch3 F453Y activity (ED Fig. 7e series) / USP30ch3 F453Y activity: mean n=3; for USP30ch3 F453Y activity: Fig. 4e,g
Method: (§1) Enzyme kinetics were performed in black, low-volume, non-binding-surface 384-well plates. […] Next, 10 µl of 2× enzyme solution was added in triplicate to the plate. The reaction was started by adding 10 µl of 2× substrate solution. […] Inhibitor solution (4×) was added to 4× enzyme solution to create a 2× enzyme–inhibitor mixture. Next, 10 µl of this 2× enzyme–inhibitor mixture was then added to the plate in triplicate, and the plate was incubated at room temperature for 90 min. The reaction was started by adding 10 µl of 2× Ub–RhoG substrate. […] Data were analyzed with GraphPad Prism.

[2] = tested on: T1, Flag-tagged, full-length USP30 F453Y in HEK293 cells; experiment: Cellular ubiquitin probe competition, overexpressed Flag-tagged USP30 F453Y; type: cell-based, human; settings: 2 µM compound, 2 h; HA-Ub-PA probe in lysate
T1 construct: C-terminally Flag-tagged human USP30 (1–517) was used for transient transfection; expressed in transfected cells; host or cells: HEK293, transient transfection of a pOPINE vector
Method: HEK293 cells (8 × 10^5 cells per well) were seeded in six-well plates and cultivated for 24 h. PEI transfecting reagent (Polysciences) was pre-incubated for 10 min with the vectors in 200 μl Opti-MEM medium (2 µg DNA per well). Cells were transfected and incubated for 48 h. Following the treatment with either compounds or DMSO in fresh medium for an additional 2 h, cells were processed as described below. Cells were seeded at 8 × 10^5 cells per well and grown for 48 h. […] The medium was aspirated, and cells were washed once with ice-cold PBS. Cells were collected by scraping in lysis buffer (150 mM NaCl, 250 mM sucrose, 50 mM Tris, pH 8.0, 5 mM TCEP) supplemented with EDTA-free complete protease inhibitor cocktail and benzonase. Suspended cells were homogenized by 12 bursts of a microtip probe sonicator (Branson Sonifier 450) at 10% amplitude with pulses of 1 s on ice. Remaining cell debris was separated by centrifugation (20,817g, 5 min, 4 °C). […] After incubation for 10 min at room temperature, reactions were quenched by the addition of 4× reducing LDS sample buffer. Samples were resolved by SDS–PAGE and further analyzed via western blot. Using a Trans-Blot Turbo system (Bio-Rad, 1.0 A, 25 V, 30 min), proteins were blotted onto a nitrocellulose membrane. […]

[3] = tested on: USP30^ch3 L328F; experiment: Thermal shift assay, USP30 ch3 L328F; type: binding, human; settings: 20 μM inhibitor; for ΔTm, USP30^ch3 L328F: replicates or average
Method: (§2) The thermal stability of USP30 constructs and effects of either inhibitor or Ub-PA binding were determined by thermal shift assays. Inhibitor, Ub-PA and SYPRO orange dye (Sigma, 5,000× stock in DMSO) solutions were prepared in 1× PBS, 4 mM DTT. Inhibitor/Ub-PA was prediluted to 100 µM, and SYPRO orange dye was prediluted to 50× (from the commercial stock). Mixtures of protein, inhibitor/Ub-PA and SYPRO were prepared with inhibitor/Ub-PA at a final concentration of 20 μM, SYPRO at a final concentration of 4× and protein at a final concentration of 2 μM for c1, 4 μM for ch1, ch4 and c2 and 3 μM for ch2 and ch3. Samples were added in triplicate to a white 96-well PCR plate (Bio-Rad). Fluorescence intensity was monitored (excitation, 450–490 nm; emission, 560–580 nm) at a gradient of 20–90 °C (increment of 0.3 °C, hold for 5 s before read) on a real-time PCR system (Bio-Rad).

[4] = biological target: USP30^ch3 A162S (Homo sapiens, UniProt Q70CQ3, A162S, form not given); experiment: Thermal shift assay, USP30 ch3 A162S; type: binding; settings: 20 μM inhibitor
Method: as §2

[5] = biological target: T2, USP30^c1 (Homo sapiens, UniProt Q70CQ3, DEL179-208/DEL211-214/DEL358-428/F348D/I353E/M350S/N216S/S215G); experiment: Thermal shift assay, USP30 c1; type: binding; settings: for Tm in presence of compound, USP30^c1: 20 μM inhibitor
T2 sequence (Q70CQ3 with tags, fused parts or gaps DEL179-208/DEL211-214/S215G/N216S/F348D/M350S/I353E/DEL358-428): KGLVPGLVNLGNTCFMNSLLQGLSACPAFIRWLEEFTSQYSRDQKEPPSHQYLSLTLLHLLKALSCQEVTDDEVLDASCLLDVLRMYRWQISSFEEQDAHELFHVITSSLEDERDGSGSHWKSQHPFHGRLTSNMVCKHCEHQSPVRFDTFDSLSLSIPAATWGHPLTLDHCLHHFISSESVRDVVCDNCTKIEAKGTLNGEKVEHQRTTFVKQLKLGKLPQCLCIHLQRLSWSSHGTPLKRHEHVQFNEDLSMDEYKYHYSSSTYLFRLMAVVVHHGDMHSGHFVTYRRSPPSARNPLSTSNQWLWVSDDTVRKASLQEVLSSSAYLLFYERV
Method: as §2

[6] = biological target: T3, USP30^ch3 (Homo sapiens, UniProt Q70CQ3); experiment: Thermal shift assay, USP30 ch3; type: binding; settings: 20 μM inhibitor
Method: as §2

[7] = biological target: T3, USP30^ch3; experiment: Ub–RhoG cleavage enzyme inhibition assay, chimera 3 (WT); type: biochemical; settings: mean n=3
Method: as §1

Chain of USP30^ch3 F453Y (Q70CQ3 64-502 F453Y, form open): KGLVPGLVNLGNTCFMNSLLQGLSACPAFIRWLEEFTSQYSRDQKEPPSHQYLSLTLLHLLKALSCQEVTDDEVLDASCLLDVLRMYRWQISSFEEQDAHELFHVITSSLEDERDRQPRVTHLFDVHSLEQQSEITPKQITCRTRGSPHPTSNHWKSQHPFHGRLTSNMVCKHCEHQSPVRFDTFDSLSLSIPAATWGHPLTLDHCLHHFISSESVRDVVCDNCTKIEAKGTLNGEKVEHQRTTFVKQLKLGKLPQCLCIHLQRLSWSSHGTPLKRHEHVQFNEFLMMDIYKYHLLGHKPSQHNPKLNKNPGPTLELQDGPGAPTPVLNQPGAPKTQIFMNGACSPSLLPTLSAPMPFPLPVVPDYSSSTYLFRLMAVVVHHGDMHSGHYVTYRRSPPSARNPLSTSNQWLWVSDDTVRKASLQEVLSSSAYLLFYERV
Chain of USP30^ch3 F453Y (P54578 248-318 partner, form open): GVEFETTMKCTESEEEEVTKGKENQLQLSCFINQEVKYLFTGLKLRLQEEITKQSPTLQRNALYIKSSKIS
Chain of USP30^ch3 F453Y (Q9P2H5 821-846 partner, form open): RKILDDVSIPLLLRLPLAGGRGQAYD
T3 sequence (Q70CQ3 64-502): as the sequence (Q70CQ3 64-502 F453Y, form open) above, with Y390F counted along it
T3 sequence (P54578 248-318 partner): as the sequence (P54578 248-318 partner, form open) above
Chain of USP30^ch3 A162S (Q70CQ3 64-502 A162S, form open): as the sequence (Q70CQ3 64-502 F453Y, form open) above, with A99S, Y390F counted along it
Chain of USP30^ch3 A162S (P54578 248-318 partner, form open): as the sequence (P54578 248-318 partner, form open) above

CC(C)(CO)NS(=O)(=O)c1ccc(NC(=O)[C@H](Cc2ccccc2)NC(=O)c2ccc(F)cc2)cc1 [NK036]
reduction of inhibition potency by F453Y substitution (specificity window vs WT) [1]: more than two orders of magnitude | probe labeling of Flag-USP30 F453Y [2]: equally labeled | Tm in presence of compound, USP30^ch3 L328F [3]: 58.2 °C | ΔTm, USP30^ch3 L328F [3]: 1.2 °C | Tm in presence of compound, USP30^ch3 A162S [4]: 59.7 °C | Tm in presence of compound, USP30^c1 [5]: 58.3 °C | ΔTm at 20 µM ([5]; read-out: ΔTm, USP30^c1): 7.2 °C | ΔTm at 20 µM ([5]; read-out: ΔTm, column headed USP30c1 in sheet Fig. 4f): 6.1 °C

CC(C)(C)NS(=O)(=O)c1ccc(NC(=O)[C@H](Cc2ccccc2)NC(=O)c2ccc(F)cc2)cc1 [compound 39]
Tm in presence of compound, USP30^ch3 [6]: 61.5 °C | USP30ch3 WT activity (Fig. 5d / ED Fig. 7e series) ([7]; inhibitor 0.001563 nM): 0.9251 | USP30ch3 WT activity (Fig. 5d / ED Fig. 7e series) ([7]; inhibitor 0.00625 nM): 0.867 | USP30ch3 activity ([7]; inhibitor 0.00625 nM): 0.8546 | USP30ch3 WT activity (Fig. 5d / ED Fig. 7e series) ([7]; inhibitor 0.025 nM): 0.8429 | USP30ch3 activity ([7]; inhibitor 0.025 nM): 0.7063 | USP30ch3 WT activity (Fig. 5d / ED Fig. 7e series) ([7]; inhibitor 0.1 nM): 0.705 | USP30ch3 activity ([7]; inhibitor 0.1 nM): 0.6531 | USP30ch3 WT activity (Fig. 5d / ED Fig. 7e series) ([7]; inhibitor 0.39 nM): 0.5733 | USP30ch3 activity ([7]; inhibitor 0.39 nM): 0.4658 | USP30ch3 WT activity (Fig. 5d / ED Fig. 7e series) ([7]; inhibitor 1.56 nM): 0.4495 | USP30ch3 activity ([7]; inhibitor 1.56 nM): 0.3269 | USP30ch3 WT activity (Fig. 5d / ED Fig. 7e series) ([7]; inhibitor 6.25 nM): 0.2804 | USP30ch3 activity ([7]; inhibitor 6.25 nM): 0.1958 | USP30ch3 WT activity (Fig. 5d / ED Fig. 7e series) ([7]; inhibitor 25 nM): 0.1378 | USP30ch3 activity ([7]; inhibitor 25 nM): 0.09897 | USP30ch3 WT activity (Fig. 5d / ED Fig. 7e series) ([7]; inhibitor 100 nM): 0.05989 | USP30ch3 activity ([7]; inhibitor 100 nM): 0.03567 | USP30ch3 WT activity (Fig. 5d / ED Fig. 7e series) ([7]; inhibitor 400 nM): 0.03092 | USP30ch3 activity ([7]; inhibitor 400 nM): 0.008529 | USP30ch3 WT activity (Fig. 5d / ED Fig. 7e series) ([7]; inhibitor 1600 nM): 0.02661 | USP30ch3 activity ([7]; inhibitor 1600 nM): -0.001344 | USP30ch3 activity ([7]; inhibitor 0.0015625 (0.001563) nM): 0.9081 | reduction of inhibition potency by F453Y substitution (specificity window vs WT) [1]: three orders of magnitude | USP30ch3 F453Y activity (ED Fig. 7e series) ([1]; inhibitor 0.001563 nM): 1.055 | USP30ch3 F453Y activity ([1]; inhibitor 0.001563 nM): 0.9971 | USP30ch3 F453Y activity (ED Fig. 7e series) ([1]; inhibitor 0.00625 nM): 1.076 | USP30ch3 F453Y activity ([1]; inhibitor 0.00625 nM): 1.054 | USP30ch3 F453Y activity (ED Fig. 7e series) ([1]; inhibitor 0.025 nM): 1.018 | USP30ch3 F453Y activity ([1]; inhibitor 0.025 nM): 1.004 | USP30ch3 F453Y activity (ED Fig. 7e series) ([1]; inhibitor 0.1 nM): 0.9989 | USP30ch3 F453Y activity ([1]; inhibitor 0.1 nM): 0.9561 | USP30ch3 F453Y activity (ED Fig. 7e series) ([1]; inhibitor 0.39 nM): 0.8995 | USP30ch3 F453Y activity ([1]; inhibitor 0.39 nM): 0.9204 | USP30ch3 F453Y activity (ED Fig. 7e series) ([1]; inhibitor 1.56 nM): 0.9776 | USP30ch3 F453Y activity ([1]; inhibitor 1.56 nM): 0.9185 | USP30ch3 F453Y activity (ED Fig. 7e series) ([1]; inhibitor 6.25 nM): 0.9466 | USP30ch3 F453Y activity ([1]; inhibitor 6.25 nM): 0.9079 | USP30ch3 F453Y activity (ED Fig. 7e series) ([1]; inhibitor 25 nM): 0.9111 | USP30ch3 F453Y activity ([1]; inhibitor 25 nM): 0.8377 | USP30ch3 F453Y activity (ED Fig. 7e series) ([1]; inhibitor 100 nM): 0.8886 | USP30ch3 F453Y activity ([1]; inhibitor 100 nM): 0.7744 | USP30ch3 F453Y activity (ED Fig. 7e series) ([1]; inhibitor 400 nM): 0.7448 | USP30ch3 F453Y activity ([1]; inhibitor 400 nM): 0.5461 | USP30ch3 F453Y activity (ED Fig. 7e series) ([1]; inhibitor 1600 nM): 0.7279 | USP30ch3 F453Y activity ([1]; inhibitor 1600 nM): 0.3171 | probe labeling of Flag-USP30 F453Y [2]: equally labeled | Tm in presence of compound, USP30^ch3 L328F [3]: 58.5 °C | ΔTm, USP30^ch3 L328F [3]: 1.5 °C | Tm in presence of compound, USP30^ch3 A162S [4]: 60.0 °C | Tm in presence of compound, USP30^c1 [5]: 58.9 °C | ΔTm at 20 µM ([5]; read-out: ΔTm, USP30^c1): 7.8 °C

Reference: publication PMC12440824, “Chimeric deubiquitinase engineering reveals structural basis for specific inhibition of the mitophagy regulator USP30” (Nature Structural & Molecular Biology, 2025)
